Numbers after ± are expanded uncertainties.
Columns and labels:
[1] = xn = mol fraction of the nth substance listed; conditions: 313.15 K, 101 kPa, Liquid, Direct dilatometry
[2] = 298.15 K; 101.33 kPa; Liquid; Pycnometric method
[3] = refractive index (Na D-line) (dimensionless); conditions: 298.15 K; 101.33 kPa; Liquid; Standard Abbe refractometry

CC(=O)N(C)C [N,N-dimethylethanamide] + CO
[1]
Conditions | excess molar volume [m3/mol]
x1 = 0.0166 | -5.83e-08 ± 3.1e-09
x1 = 0.0295 | -9.34e-08 ± 3.1e-09
x1 = 0.0344 | -1.106e-07 ± 3.2e-09
x1 = 0.0508 | -1.501e-07 ± 3.2e-09
x1 = 0.0623 | -1.832e-07 ± 3.2e-09
x1 = 0.0717 | -2.034e-07 ± 3.2e-09
x1 = 0.0953 | -2.561e-07 ± 3.3e-09
x1 = 0.0979 | -2.653e-07 ± 3.3e-09
x1 = 0.1263 | -3.178e-07 ± 3.3e-09
x1 = 0.1366 | -3.395e-07 ± 3.4e-09
x1 = 0.169 | -3.878e-07 ± 3.4e-09
x1 = 0.1692 | -3.91e-07 ± 3.4e-09
x1 = 0.1997 | -4.315e-07 ± 3.4e-09
x1 = 0.2025 | -4.324e-07 ± 3.4e-09
x1 = 0.228 | -4.611e-07 ± 3.5e-09
x1 = 0.2317 | -4.661e-07 ± 3.5e-09
x1 = 0.2533 | -4.845e-07 ± 3.5e-09
x1 = 0.2599 | -4.913e-07 ± 3.5e-09
x1 = 0.2804 | -5.069e-07 ± 3.5e-09
x1 = 0.2837 | -5.077e-07 ± 3.5e-09
x1 = 0.3079 | -5.225e-07 ± 3.6e-09
x1 = 0.308 | -5.222e-07 ± 3.6e-09
x1 = 0.3093 | -5.264e-07 ± 3.6e-09
x1 = 0.3243 | -5.305e-07 ± 3.5e-09
x1 = 0.3406 | -5.399e-07 ± 3.5e-09
x1 = 0.3748 | -5.488e-07 ± 3.5e-09
x1 = 0.4031 | -5.518e-07 ± 3.6e-09
x1 = 0.4372 | -5.508e-07 ± 3.6e-09
x1 = 0.4807 | -5.416e-07 ± 3.5e-09
x1 = 0.5265 | -5.238e-07 ± 3.5e-09
x1 = 0.5817 | -4.921e-07 ± 3.5e-09
x1 = 0.5988 | -4.766e-07 ± 3.5e-09
x1 = 0.6131 | -4.66e-07 ± 3.5e-09
x1 = 0.6318 | -4.516e-07 ± 3.5e-09
x1 = 0.6362 | -4.516e-07 ± 3.5e-09
x1 = 0.6489 | -4.37e-07 ± 3.4e-09
x1 = 0.6633 | -4.244e-07 ± 3.4e-09
x1 = 0.6702 | -4.188e-07 ± 3.4e-09
x1 = 0.6938 | -3.98e-07 ± 3.4e-09
x1 = 0.6957 | -3.938e-07 ± 3.4e-09
x1 = 0.6975 | -3.923e-07 ± 3.4e-09
x1 = 0.7225 | -3.669e-07 ± 3.4e-09
x1 = 0.7286 | -3.606e-07 ± 3.4e-09
x1 = 0.7471 | -3.413e-07 ± 3.3e-09
x1 = 0.752 | -3.354e-07 ± 3.3e-09
x1 = 0.7584 | -3.295e-07 ± 3.3e-09
x1 = 0.7813 | -3.022e-07 ± 3.3e-09
x1 = 0.7951 | -2.867e-07 ± 3.3e-09
x1 = 0.8055 | -2.731e-07 ± 3.3e-09
x1 = 0.8278 | -2.456e-07 ± 3.2e-09
x1 = 0.83 | -2.444e-07 ± 3.2e-09
x1 = 0.8417 | -2.295e-07 ± 3.2e-09
x1 = 0.8584 | -2.065e-07 ± 3.2e-09
x1 = 0.8746 | -1.858e-07 ± 3.2e-09
x1 = 0.8862 | -1.705e-07 ± 3.2e-09
x1 = 0.9051 | -1.481e-07 ± 3.2e-09
x1 = 0.9081 | -1.406e-07 ± 3.2e-09
x1 = 0.9134 | -1.337e-07 ± 3.1e-09
x1 = 0.9384 | -9.87e-08 ± 3.1e-09
x1 = 0.943 | -9.15e-08 ± 3.1e-09
x1 = 0.9698 | -5.42e-08 ± 3.1e-09
x1 = 0.9711 | -5.33e-08 ± 3.1e-09

CC(=O)N(C)C [N,N-dimethylethanamide]
Conditions | mass density [kg/m3] | refractive index
[2] | 922.4 ± 0.9 | –
[3] | – | 1.43556 ± 0.0007

CO [methanol]
Conditions | mass density [kg/m3] | refractive index
[2] | 772.2 ± 3.4 | –
[3] | – | 1.32645 ± 0.0012

CCO [ethanol]
Conditions | mass density [kg/m3] | refractive index
[2] | 772.2 ± 3.4 | –
[3] | – | 1.3592 ± 0.0012

CC(=O)N(C)C [N,N-dimethylethanamide] + CCO
[1]
Conditions | excess molar volume [m3/mol]
x1 = 0.0259 | -3.74e-08 ± 3e-09
x1 = 0.0456 | -6.13e-08 ± 3.1e-09
x1 = 0.0769 | -9.86e-08 ± 3.1e-09
x1 = 0.103 | -1.237e-07 ± 3.1e-09
x1 = 0.1481 | -1.61e-07 ± 3.2e-09
x1 = 0.1765 | -1.787e-07 ± 3.2e-09
x1 = 0.2149 | -1.991e-07 ± 3.2e-09
x1 = 0.2587 | -2.157e-07 ± 3.2e-09
x1 = 0.2846 | -2.228e-07 ± 3.2e-09
x1 = 0.3094 | -2.282e-07 ± 3.2e-09
x1 = 0.3288 | -2.315e-07 ± 3.2e-09
x1 = 0.3513 | -2.338e-07 ± 3.2e-09
x1 = 0.3784 | -2.352e-07 ± 3.2e-09
x1 = 0.3866 | -2.374e-07 ± 3.2e-09
x1 = 0.4014 | -2.353e-07 ± 3.2e-09
x1 = 0.4131 | -2.373e-07 ± 3.2e-09
x1 = 0.4396 | -2.356e-07 ± 3.2e-09
x1 = 0.4661 | -2.327e-07 ± 3.2e-09
x1 = 0.4937 | -2.292e-07 ± 3.2e-09
x1 = 0.5249 | -2.227e-07 ± 3.2e-09
x1 = 0.5532 | -2.161e-07 ± 3.2e-09
x1 = 0.5913 | -2.059e-07 ± 3.2e-09
x1 = 0.6379 | -1.906e-07 ± 3.2e-09
x1 = 0.6743 | -1.761e-07 ± 3.2e-09
x1 = 0.7191 | -1.593e-07 ± 3.2e-09
x1 = 0.7691 | -1.359e-07 ± 3.1e-09
x1 = 0.8211 | -1.109e-07 ± 3.1e-09
x1 = 0.8768 | -7.86e-08 ± 3.1e-09
x1 = 0.9287 | -4.6e-08 ± 3e-09
x1 = 0.962 | -2.56e-08 ± 3e-09

Source: the NIST ThermoML archive (doi:10.1016/j.jct.2007.09.009)
